Source: paper PMC6979384, “Characterization of the plant homeodomain (PHD) reader family for their histone tail interactions” (Epigenetics & Chromatin, 2020)

Experiments:
Test in all cases: Histone peptide microarray
Format in all cases: binding, human
[1] = tested on: PHF21A; conditions: sheet "Array Heatmap"; GST-tagged PHF21A; arrays performed twice, total replicate number n = 4
In short: (§1)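 Each reader, produced as a GST fusion and purified, was tested at 0.5 μM on synthetic histone peptides (293 in total) carrying single or combinatorial marks. Intensities averaged over four replicates.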

[2] = tested on: ING2; conditions: sheet "Array Heatmap"; GST-tagged ING2; arrays performed twice, total replicate number n = 4
In short: as §1

[3] = tested on: ING1; conditions: sheet "Array Heatmap"; GST-tagged ING1; arrays performed twice, total replicate number n = 4
In short: as §1

[4] = tested on: KDM7A; conditions: sheet "Array Heatmap"; GST-tagged KDM7A; arrays performed twice, total replicate number n = 4
In short: as §1

[5] = tested on: BPTF (PB); conditions: sheet "Array Heatmap"; GST-tagged BPTF (PB); arrays performed twice, total replicate number n = 4
In short: as §1

[6] = tested on: KDM4C (TTP); conditions: sheet "Array Heatmap"; GST-tagged KDM4C (TTP); arrays performed twice, total replicate number n = 4
In short: as §1

[7] = tested on: TRIM66 (PB); conditions: sheet "Array Heatmap"; GST-tagged TRIM66 (PB); arrays performed twice, total replicate number n = 4
In short: as §1

[8] = tested on: CHD5 (PCC); conditions: sheet "Array Heatmap"; GST-tagged CHD5 (PCC); arrays performed twice, total replicate number n = 4
In short: as §1

[9] = tested on: DIDO1; conditions: sheet "Array Heatmap"; GST-tagged DIDO1; arrays performed twice, total replicate number n = 4
In short: as §1

[10] = tested on: CHD4 (PPCC); conditions: sheet "Array Heatmap"; GST-tagged CHD4 (PPCC); arrays performed twice, total replicate number n = 4
In short: as §1

[11] = tested on: KDM5B (1); conditions: sheet "Array Heatmap"; GST-tagged KDM5B (1); arrays performed twice, total replicate number n = 4
In short: as §1

[12] = tested on: ING5; conditions: sheet "Array Heatmap"; GST-tagged ING5; arrays performed twice, total replicate number n = 4
In short: as §1

[13] = tested on: CHD5 (PPCC); conditions: sheet "Array Heatmap"; GST-tagged CHD5 (PPCC); arrays performed twice, total replicate number n = 4
In short: as §1

[14] = tested on: AIRE (PP); conditions: sheet "Array Heatmap"; GST-tagged AIRE (PP); arrays performed twice, total replicate number n = 4
In short: as §1

[15] = tested on: PHF8; conditions: sheet "Array Heatmap"; GST-tagged PHF8; arrays performed twice, total replicate number n = 4
In short: as §1

[16] = tested on: PHRF1 (RP); conditions: sheet "Array Heatmap"; GST-tagged PHRF1 (RP); arrays performed twice, total replicate number n = 4
In short: as §1

[17] = tested on: MLL5; conditions: sheet "Array Heatmap"; GST-tagged MLL5; arrays performed twice, total replicate number n = 4
In short: as §1

[18] = tested on: KDM5A (3); conditions: sheet "Array Heatmap"; GST-tagged KDM5A (3); arrays performed twice, total replicate number n = 4
In short: as §1

[19] = tested on: PHF13; conditions: sheet "Array Heatmap"; GST-tagged PHF13; arrays performed twice, total replicate number n = 4
In short: as §1

[20] = tested on: KDM5B (3); conditions: sheet "Array Heatmap"; GST-tagged KDM5B (3); arrays performed twice, total replicate number n = 4
In short: as §1

[21] = tested on: SP140L; conditions: sheet "Array Heatmap"; GST-tagged SP140L; arrays performed twice, total replicate number n = 4
In short: as §1

[22] = tested on: DPF2 (PPC2W2); conditions: sheet "Array Heatmap"; GST-tagged DPF2 (PPC2W2); arrays performed twice, total replicate number n = 4
In short: as §1

[23] = tested on: PHF23; conditions: sheet "Array Heatmap"; GST-tagged PHF23; arrays performed twice, total replicate number n = 4
In short: as §1

[24] = tested on: MORC3 (CW); conditions: sheet "Array Heatmap"; GST-tagged MORC3 (CW); arrays performed twice, total replicate number n = 4
In short: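 GST-tagged PHD readers, 0.5 μM, probed on a microarray of 293 synthetic histone peptides carrying single or combinatorial PTMs (optimized Petell protocol). Signals are averaged over 4 replicates and expressed as relative binding.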

[25] = tested on: KDM5A (1); conditions: sheet "Array Heatmap"; GST-tagged KDM5A (1); arrays performed twice, total replicate number n = 4
In short: as §1

[26] = tested on: ING4; conditions: sheet "Array Heatmap"; GST-tagged ING4; arrays performed twice, total replicate number n = 4
In short: as §1

[27] = tested on: PHF2; conditions: sheet "Array Heatmap"; GST-tagged PHF2; arrays performed twice, total replicate number n = 4
In short: as §1

[28] = tested on: BAZ2B; conditions: sheet "Array Heatmap"; GST-tagged BAZ2B; arrays performed twice, total replicate number n = 4
In short: as §1

[29] = tested on: RAG2; conditions: sheet "Array Heatmap"; GST-tagged RAG2; arrays performed twice, total replicate number n = 4
In short: as §1

[30] = tested on: TAF3; conditions: sheet "Array Heatmap"; GST-tagged TAF3; arrays performed twice, total replicate number n = 4
In short: as §1

[31] = tested on: ING3; conditions: sheet "Array Heatmap"; GST-tagged ING3; arrays performed twice, total replicate number n = 4
In short: as §1

Row | Substance | Array Heatmap signal, PHF21A [1] | Array Heatmap signal, ING2 [2] | Array Heatmap signal, ING1 [3] | Array Heatmap signal, KDM7A [4] | Array Heatmap signal, BPTF (PB) [5] | Array Heatmap signal, KDM4C (TTP) [6] | Array Heatmap signal, TRIM66 (PB) [7] | Array Heatmap signal, CHD5 (PCC) [8] | Array Heatmap signal, DIDO1 [9] | Array Heatmap signal, CHD4 (PPCC) [10] | Array Heatmap signal, KDM5B (1) [11] | Array Heatmap signal, ING5 [12] | Array Heatmap signal, CHD5 (PPCC) [13] | Array Heatmap signal, AIRE (PP) [14] | Array Heatmap signal, PHF8 [15] | Array Heatmap signal, PHRF1 (RP) [16] | Array Heatmap signal, MLL5 [17] | Array Heatmap signal, KDM5A (3) [18] | Array Heatmap signal, PHF13 [19] | Array Heatmap signal, KDM5B (3) [20] | other results
1 | H3.3K27me1: H3.3 15-34 [Peptide H3.3K27me1] | 0.4715 | 0.5862 | 0.4683 | 0.4745 | 0.3434 | 0.5409 | 0.534 | 0.7906 | 0.5418 | 0.5655 | 0.6832 | 0.3774 | 0.5646 | 0.5413 | 0.3072 | 0.3762 | 0.5371 | 0.366 | 0.6089 | 0.4744 | Array Heatmap signal, SP140L [21]: 0.3662; Array Heatmap signal, DPF2 (PPC2W2) [22]: 0.6219; Array Heatmap signal, PHF23 [23]: 0.4768; Array Heatmap signal, MORC3 (CW) [24]: 0.3133; Array Heatmap signal, KDM5A (1) [25]: 0.5094; Array Heatmap signal, ING4 [26]: 0.4785; Array Heatmap signal, PHF2 [27]: 0.3646; Array Heatmap signal, BAZ2B [28]: 0.5147; Array Heatmap signal, RAG2 [29]: 0.2345; Array Heatmap signal, TAF3 [30]: 0.2716; Array Heatmap signal, ING3 [31]: 0.4473
2 | H3.3K27me2 + S28p: H3.3 15-34 | 0.4472 | 0.6211 | 0.5375 | 0.3322 | 0.3515 | 0.4645 | 0.5871 | 0.7282 | 0.6639 | 0.6277 | 0.6269 | 0.3515 | 0.5567 | 0.3996 | 0.3445 | 0.4333 | 0.548 | 0.4997 | 0.6326 | 0.4734 | Array Heatmap signal, SP140L [21]: 0.3521; Array Heatmap signal, DPF2 (PPC2W2) [22]: 0.6352; Array Heatmap signal, PHF23 [23]: 0.5303; Array Heatmap signal, MORC3 (CW) [24]: 0.3408; Array Heatmap signal, KDM5A (1) [25]: 0.4568; Array Heatmap signal, ING4 [26]: 0.4488; Array Heatmap signal, PHF2 [27]: 0.5406; Array Heatmap signal, BAZ2B [28]: 0.4685; Array Heatmap signal, RAG2 [29]: 0.2608; Array Heatmap signal, TAF3 [30]: 0.2725; Array Heatmap signal, ING3 [31]: 0.4796
3 | H3.3K27me2: H3.3 15-34 [Peptide H3.3K27me2] | 0.5329 | 0.5964 | 0.5537 | 0.388 | 0.3599 | 0.5464 | 0.5739 | 0.8298 | 0.6851 | 0.613 | 0.6552 | 0.3925 | 0.607 | 0.5737 | 0.3923 | 0.4654 | 0.5397 | 0.4717 | 0.6291 | 0.5196 | Array Heatmap signal, SP140L [21]: 0.3774; Array Heatmap signal, DPF2 (PPC2W2) [22]: 0.6895; Array Heatmap signal, PHF23 [23]: 0.5513; Array Heatmap signal, MORC3 (CW) [24]: 0.404; Array Heatmap signal, KDM5A (1) [25]: 0.5224; Array Heatmap signal, ING4 [26]: 0.4872; Array Heatmap signal, PHF2 [27]: 0.504; Array Heatmap signal, BAZ2B [28]: 0.4966; Array Heatmap signal, RAG2 [29]: 0.2646; Array Heatmap signal, TAF3 [30]: 0.2764; Array Heatmap signal, ING3 [31]: 0.5037
4 | H3.3K27me3 + S28p: H3.3 15-34 | 0.4021 | 0.582 | 0.4657 | 0.2454 | 0.288 | 0.35 | 0.52 | 0.7455 | 0.6255 | 0.5244 | 0.5567 | 0.2601 | 0.4194 | 0.3112 | 0.2831 | 0.3794 | 0.4825 | 0.3655 | 0.4998 | 0.357 | Array Heatmap signal, SP140L [21]: 0.3164; Array Heatmap signal, DPF2 (PPC2W2) [22]: 0.5839; Array Heatmap signal, PHF23 [23]: 0.4498; Array Heatmap signal, MORC3 (CW) [24]: 0.3155; Array Heatmap signal, KDM5A (1) [25]: 0.3549; Array Heatmap signal, ING4 [26]: 0.3661; Array Heatmap signal, PHF2 [27]: 0.4942; Array Heatmap signal, BAZ2B [28]: 0.3578; Array Heatmap signal, RAG2 [29]: 0.2001; Array Heatmap signal, TAF3 [30]: 0.2035; Array Heatmap signal, ING3 [31]: 0.4009
